Experimental data published in PubChem BioAssay AID184 (DTP/NCI, 2004).
“And” between values parts separate entries of the source, which are not always exact repeats. Equal values may be shown once. Inconclusive results and toxic doses are left out. Starred links: 1 amine or outer side, 2 acyl side, 3 side chain; linkers in the order of their positions; H or OH if unused. Positions of bridges follow the written chain, without caps; N, C: chain ends. Non-standard residues stand in square brackets, D forms with d. Residues, ends and D or L forms follow the SMILES beside them. Chains are numbered I, II in the order given. Actinocin(9to1) = Cc1c2oc3c(C)ccc(C(=O)[*:1])c3nc-2c(C(=O)[*:2])c(N)c1=O; aThr = C[C@H](O)[C@H](N)C(=O)O; NMeV = CN[C@H](C(=O)O)C(C)C; Sar = CNCC(=O)O

System: BALB/cJ mice, ADJ-PC-6 ip tumor, median survival T/C
Assay: NCI In Vivo Anticancer Drug Screen. Data for tumor model ADJ-PC-6 (intraperitoneal) in BALB/cJ mice
Details: endpoint: median survival time, higher = longer survival
Method: The antitumor activity of compounds was measured in mice bearing transplantable tumors. Survival or tumor size were measured and the results are expressed as the measurement made in the treated group (T) divided by the measurement made in the vehicle treated control group (C). The tumor model used in this assay is ADJ-PC-6 (intraperitoneal) in BALB/cJ mice

COC(=O)C[C@](O)(CCCC(C)(C)O)C(=O)O[C@@H]1C(OC)=C[C@]23CCCN2CCc2cc4c(cc2[C@H]13)OCO4
T/C (dose: 0.25 mg/kg/injection, schedule: Q04DX003 (ip), vehicle: saline): 104 % of control | T/C (dose: 0.5 mg/kg/injection, schedule: Q04DX003 (ip), vehicle: saline): 93 % of control | T/C (dose: 1.0 mg/kg/injection, schedule: Q04DX003 (ip), vehicle: saline): 88 % of control | T/C (dose: 2.0 mg/kg/injection, schedule: Q04DX003 (ip), vehicle: saline): 104 % of control | T/C (dose: 4.0 mg/kg/injection, schedule: Q04DX003 (ip), vehicle: saline): 102 % of control

Cc1c2oc3c(C)ccc(C(=O)N[C@@H]4C(=O)N[C@H](C(C)C)C(=O)N5CCC[C@H]5C(=O)N(C)CC(=O)N(C)[C@@H](C(C)C)C(=O)O[C@H]4C)c3nc-2c(C(=O)N[C@@H]2C(=O)N[C@H](C(C)C)C(=O)N3CCC[C@H]3C(=O)N(C)CC(=O)N(C)[C@@H](C(C)C)C(=O)O[C@H]2C)c(N)c1=O (I: [aThr][dV]P[Sar][NMeV] / II: [aThr][dV]P[Sar][NMeV]; ester I:1-I:C, II:1-II:C; linker I:N-II:N via Actinocin(9to1))
T/C (dose: 0.04 mg/kg/injection, schedule: Q04DX003 (ip), vehicle: saline + alcohol): 115 % of control | T/C (dose: 0.08 mg/kg/injection, schedule: Q04DX003 (ip), vehicle: saline + alcohol): 115 % of control | T/C (dose: 0.3 mg/kg/injection, schedule: Q04DX003 (ip), vehicle: saline + alcohol): 156 % of control | T/C (dose: 0.6 mg/kg/injection, schedule: Q04DX003 (ip), vehicle: saline + alcohol): 189 % of control and 197 % of control | T/C (dose: 37.5 micrograms/kg/injection, schedule: Q04DX003 (ip), vehicle: saline + alcohol): 94 % of control | T/C (dose: 75.0 micrograms/kg/injection, schedule: Q04DX003 (ip), vehicle: saline + alcohol): 103 % of control | T/C (dose: 150.0 micrograms/kg/injection, schedule: Q04DX003 (ip), vehicle: saline + alcohol): 97 % of control | T/C (dose: 300.0 micrograms/kg/injection, schedule: Q04DX003 (ip), vehicle: saline + alcohol): 90 % of control

CC1(CO)C(O)CCC2(C)C1CCC1CC3CC12CCC3(O)CO (centres undefined)
T/C (dose: 37.5 mg/kg/injection, schedule: Q04DX003 (ip), vehicle: Klucel (hydroxypropylcellulose) (HPC)): 92 % of control and 120 % of control | T/C (dose: 75.0 mg/kg/injection, schedule: Q04DX003 (ip), vehicle: Klucel (hydroxypropylcellulose) (HPC)): 115 % of control and 118 % of control | T/C (dose: 150.0 mg/kg/injection, schedule: Q04DX003 (ip), vehicle: Klucel (hydroxypropylcellulose) (HPC)): 100 % of control and 109 % of control | T/C (dose: 600.0 mg/kg/injection, schedule: Q04DX003 (ip), vehicle: Klucel (hydroxypropylcellulose) (HPC)): 106 % of control

O=P1(N(CCCl)CCCl)NCCCO1 (centres undefined)
T/C (dose: 10.0 mg/kg/injection, schedule: Q04DX003 (ip), vehicle: saline): 99 % of control | T/C (dose: 10.0 mg/kg/injection, schedule: Q04DX003 (iv), vehicle: saline): 88 % of control | T/C (dose: 19.4 mg/kg/injection, schedule: Q04DX003 (ip), vehicle: saline): 108 % of control | T/C (dose: 20.0 mg/kg/injection, schedule: Q04DX003 (ip), vehicle: saline): 109 % of control and 110 % of control | T/C (dose: 20.0 mg/kg/injection, schedule: Q04DX003 (iv), vehicle: saline): 95 % of control | T/C (dose: 32.4 mg/kg/injection, schedule: Q04DX003 (ip), vehicle: saline): 166 % of control | T/C (dose: 40.0 mg/kg/injection, schedule: Q04DX003 (ip), vehicle: saline): 173 % of control and 178 % of control | T/C (dose: 54.0 mg/kg/injection, schedule: Q04DX003 (ip), vehicle: saline): 189 % of control | T/C (dose: 80.0 mg/kg/injection, schedule: Q04DX003 (ip), vehicle: saline): 168 % of control and 335 % of control | T/C (dose: 80.0 mg/kg/injection, schedule: Q04DX003 (iv), vehicle: saline): 194 % of control | T/C (dose: 90.0 mg/kg/injection, schedule: Q04DX003 (ip), vehicle: saline): 267 % of control | T/C (dose: 150.0 mg/kg/injection, schedule: Q04DX003 (ip), vehicle: saline): 340 % of control | T/C (dose: 160.0 mg/kg/injection, schedule: Q04DX003 (ip), vehicle: saline): 194 % of control and 335 % of control | T/C (dose: 160.0 mg/kg/injection, schedule: Q04DX003 (iv), vehicle: saline): 194 % of control

CC1CCC(NC(=O)N(CCCl)N=O)CC1 (centres undefined)
T/C (dose: 1.25 mg/kg/injection, schedule: Q04DX003 (ip), vehicle: other): 120 % of control | T/C (dose: 2.5 mg/kg/injection, schedule: Q04DX003 (ip), vehicle: other): 182 % of control and 183 % of control | T/C (dose: 5.0 mg/kg/injection, schedule: Q04DX003 (ip), vehicle: other): 158 % of control and 355 % of control | T/C (dose: 10.0 mg/kg/injection, schedule: Q04DX003 (ip), vehicle: other): 337 % of control and 355 % of control | T/C (dose: 20.0 mg/kg/injection, schedule: Q04DX003 (ip), vehicle: other): 272 % of control and 297 % of control

CC(=O)O[C@H]1C(=O)[C@@]2(C)[C@H]([C@H](OC(=O)c3ccccc3)[C@]3(O)C[C@H](OC(=O)[C@H](O)[C@@H](NC(=O)c4ccccc4)c4ccccc4)C(C)=C1C3(C)C)[C@]1(OC(C)=O)CO[C@@H]1C[C@@H]2O
T/C (dose: 0.75 mg/kg/injection, schedule: Q01DX009 (ip), vehicle: Klucel (hydroxypropylcellulose) (HPC)): 102 % of control | T/C (dose: 1.56 mg/kg/injection, schedule: Q01DX009 (ip), vehicle: Klucel (hydroxypropylcellulose) (HPC)): 118 % of control | T/C (dose: 3.0 mg/kg/injection, schedule: Q01DX009 (ip), vehicle: Klucel (hydroxypropylcellulose) (HPC)): 112 % of control | T/C (dose: 3.12 mg/kg/injection, schedule: Q01DX009 (ip), vehicle: Klucel (hydroxypropylcellulose) (HPC)): 112 % of control | T/C (dose: 6.0 mg/kg/injection, schedule: Q01DX009 (ip), vehicle: Klucel (hydroxypropylcellulose) (HPC)): 121 % of control | T/C (dose: 12.0 mg/kg/injection, schedule: Q01DX009 (ip), vehicle: Klucel (hydroxypropylcellulose) (HPC)): 124 % of control

CS(=O)(=O)c1ncc(Br)cn1
T/C (dose: 25.0 mg/kg/injection, schedule: Q01DX009 (ip), vehicle: saline with Tween-80): 105 % of control | T/C (dose: 50.0 mg/kg/injection, schedule: Q01DX009 (ip), vehicle: saline with Tween-80): 105 % of control | T/C (dose: 100.0 mg/kg/injection, schedule: Q01DX009 (ip), vehicle: saline with Tween-80): 118 % of control | T/C (dose: 200.0 mg/kg/injection, schedule: Q01DX009 (ip), vehicle: saline with Tween-80): 100 % of control

S=c1nc[nH]c2nc[nH]c12
T/C (dose: 10.0 mg/kg/injection, schedule: Q04DX003 (ip), vehicle: alkali diluted with saline): 335 % of control | T/C (dose: 20.0 mg/kg/injection, schedule: Q04DX003 (ip), vehicle: alkali diluted with saline): 335 % of control | T/C (dose: 25.0 mg/kg/injection, schedule: Q04DX003 (ip), vehicle: alkali diluted with saline): 471 % of control | T/C (dose: 40.0 mg/kg/injection, schedule: Q04DX003 (ip), vehicle: alkali diluted with saline): 335 % of control | T/C (dose: 50.0 mg/kg/injection, schedule: Q04DX003 (ip), vehicle: alkali diluted with saline): 471 % of control | T/C (dose: 80.0 mg/kg/injection, schedule: Q04DX003 (ip), vehicle: alkali diluted with saline): 335 % of control | T/C (dose: 100.0 mg/kg/injection, schedule: Q04DX003 (ip), vehicle: alkali diluted with saline): 178 % of control and 471 % of control | T/C (dose: 100.0 mg/kg/injection, schedule: Q04DX003 (ip), vehicle: alkali diluted with water): 275 % of control and 283 % of control | T/C (dose: 160.0 mg/kg/injection, schedule: Q04DX003 (ip), vehicle: alkali diluted with saline): 335 % of control | T/C (dose: 200.0 mg/kg/injection, schedule: Q04DX003 (ip), vehicle: alkali diluted with saline): 93 % of control | T/C (dose: 200.0 mg/kg/injection, schedule: Q04DX003 (ip), vehicle: alkali diluted with water): 275 % of control and 369 % of control

COc1c(O)c2c(c3cc(C(=O)N4CCc5c4c(O)c(OC)c4[nH]c(C(=O)N6CC7CC78C6=CC(=O)c6[nH]cc(C)c68)cc54)[nH]c13)CCN2C(N)=O (centres undefined)
T/C (dose: 25.0 micrograms/kg/injection, schedule: Q04DX003 (ip), vehicle: DMSO): 95 % of control | T/C (dose: 50.0 micrograms/kg/injection, schedule: Q04DX003 (ip), vehicle: DMSO): 96 % of control | T/C (dose: 100.0 micrograms/kg/injection, schedule: Q04DX003 (ip), vehicle: DMSO): 103 % of control | T/C (dose: 200.0 micrograms/kg/injection, schedule: Q04DX003 (ip), vehicle: DMSO): 100 % of control

[Cl][Pt+2][Cl].[NH-]C1CCCC1.[NH2-]
T/C (dose: 1.04 mg/kg/injection, schedule: Q04DX003 (ip), vehicle: saline): 204 % of control | T/C (dose: 1.73 mg/kg/injection, schedule: Q04DX003 (ip), vehicle: saline): 254 % of control | T/C (dose: 2.88 mg/kg/injection, schedule: Q04DX003 (ip), vehicle: saline): 385 % of control | T/C (dose: 4.8 mg/kg/injection, schedule: Q04DX003 (ip), vehicle: saline): 445 % of control | T/C (dose: 8.0 mg/kg/injection, schedule: Q04DX003 (ip), vehicle: saline): 451 % of control

COc1cc(NCc2ccc3nc(N)nc(N)c3c2C)cc(OC)c1OC
T/C (dose: 3.75 mg/kg/injection, schedule: Q01DX009 (ip), vehicle: Klucel (hydroxypropylcellulose) (HPC)): 98 % of control | T/C (dose: 7.5 mg/kg/injection, schedule: Q01DX009 (ip), vehicle: Klucel (hydroxypropylcellulose) (HPC)): 110 % of control | T/C (dose: 15.0 mg/kg/injection, schedule: Q01DX009 (ip), vehicle: Klucel (hydroxypropylcellulose) (HPC)): 115 % of control
